Values belong to the compound of their own block, whether it stands above or below them.
Assays:
Serum [1] = assay: Metabolic stability in Sprague-Dawley rat serum assessed as formation of (S)-(N,N-dimethylphenylalanyl)-(2S,3S)-3[(p-formylphenoxyl)leucyl]-(S)-leucine) after 30 mins by HPLC; type: ADME, cell-free; conditions: 0.5 h
[2] = Metabolic stability in Sprague-Dawley rat gastric juice assessed as formation of (S)-(N,N-dimethylphenylalanyl)-(2S,3S)-3[(p-formylphenoxyl)leucyl]-(S)-leucine) after 30 mins by HPLC; type: ADME, tissue-based; conditions: 0.5 h
[3] = Metabolic stability in Sprague-Dawley rat intestinal fluid assessed as formation of (S)-(N,N-dimethylphenylalanyl)-(2S,3S)-3[(p-formylphenoxyl)leucyl]-(S)-leucine) after 30 mins by HPLC; type: ADME; conditions: simulated gi fluid, 0.5 h
Serum [4] = assay: Metabolic stability in Sprague-Dawley rat serum assessed as formation of (S)-(N,N-dimethylphenylalanyl)-(2S,3S)-3[(p-formylphenoxyl)leucyl]-(S)-leucine) after 5 mins by HPLC; type: ADME, cell-free
Serum [5] = assay: Metabolic stability in mouse serum assessed as formation of (S)-(N,N-dimethylphenylalanyl)-(2S,3S)-3[(p-formylphenoxyl)leucyl]-(S)-leucine) after 1 hr by HPLC; type: ADME, cell-free
Serum [6] = assay: Metabolic stability in human serum assessed as formation of (S)-(N,N-dimethylphenylalanyl)-(2S,3S)-3[(p-formylphenoxyl)leucyl]-(S)-leucine) after 1 hr by HPLC; type: ADME, cell-free
Serum [7] = assay: Metabolic stability in bovine serum assessed as formation of (S)-(N,N-dimethylphenylalanyl)-(2S,3S)-3[(p-formylphenoxyl)leucyl]-(S)-leucine) after 1 hr by HPLC; type: ADME, cell-free, Bos taurus; conditions: cattle
Serum [8] = assay: Metabolic stability in Sprague-Dawley rat serum assessed as formation of (S)-(N,N-dimethylphenylalanyl)-(2S,3S)-3[(p-formylphenoxyl)leucyl]-(S)-leucine) at 50 mg/kg, po after 30 mins by HPLC; type: ADME, organism-based; design: dose 50 mg/kg, route oral; conditions: in vivo, 0.5 h
Serum [9] = assay: Metabolic stability in Sprague-Dawley rat serum assessed as formation of (S)-(N,N-dimethylphenylalanyl)-(2S,3S)-3[(p-formylphenoxyl)leucyl]-(S)-leucine) at 25 mg/kg, po after 10 mins by HPLC; type: ADME, organism-based; design: dose 25 mg/kg, route oral; conditions: in vivo
Serum [10] = assay: Metabolic stability in Sprague-Dawley rat serum assessed as initial rate of compound cleavage at 0.10 mM after 10 mins by HPLC; type: ADME, cell-free; conditions: 100 µM
Serum [11] = assay: Metabolic stability in Sprague-Dawley rat serum assessed as initial rate of compound cleavage at 0.10 mM after 10 mins by HPLC in presence of 2 mM (phenylmethyl)sulfonyl fluoride; type: ADME, cell-free; conditions: 100 µM
Serum [12] = assay: Metabolic stability in Sprague-Dawley rat serum assessed as initial rate of compound cleavage at 0.10 mM after 10 mins by HPLC in presence of 2 mM EDTA; type: ADME, cell-free; conditions: 100 µM
Serum [13] = assay: Metabolic stability in Sprague-Dawley rat serum assessed as initial rate of compound cleavage at 0.10 mM after 10 mins by HPLC in presence of 2 mM p-chloromercuribenzoic acid; type: ADME, cell-free; conditions: 100 µM
Serum [14] = assay: Metabolic stability in Sprague-Dawley rat serum assessed as initial rate of compound cleavage at 0.10 mM after 10 mins by HPLC in presence of 2 mM bis-(p-nitrophenyl) phosphate; type: ADME, cell-free; conditions: 100 µM
Serum [15] = assay: Metabolic stability in Sprague-Dawley rat serum assessed as initial rate of compound cleavage at 0.10 mM after 10 mins by HPLC in presence of 2 mM eserine; type: ADME, cell-free; conditions: 100 µM
Serum [16] = assay: Metabolic stability in Sprague-Dawley rat serum assessed as initial rate of compound cleavage at 0.10 mM after 10 mins by HPLC in presence of 10 uM eserine; type: ADME, cell-free; conditions: 100 µM
Serum [17] = assay: Metabolic stability in Sprague-Dawley rat serum up to 3 hrs; type: ADME, cell-free

Activity (Serum [1]): Stable
SMILES: CC(C)C[C@@H]1NC(=O)[C@@H](NC(=O)[C@H](Cc2ccccc2)N(C)C)[C@H](C(C)C)Oc2ccc(cc2)CCNC1=O [DIHYDROSANJOININE A]

Stability [2]: Stable | Stability [3]: Stable | Stability (Serum [4]): Unstable | Stability (Serum [5]): Unstable | Stability (Serum [6]): Stable | Stability (Serum [7]): Stable | Stability (Serum [8]): Unstable | Stability (Serum [9]): Unstable | Stability (Serum [1]): Unstable | Stability (Serum [10]): 1.44 pmol/min/mg | Stability (Serum [11]): 1.3 pmol/min/mg | Stability (Serum [12]): 0.376 pmol/min/mg | Stability (Serum [13]): 1.34 pmol/min/mg | Stability (Serum [14]): 0.116 pmol/min/mg | Stability (Serum [15]): 0.352 pmol/min/mg | Stability (Serum [16]): 1.24 pmol/min/mg | Stability (Serum [17]): Stable
SMILES: CC(C)C[C@@H]1NC(=O)[C@@H](NC(=O)[C@H](Cc2ccccc2)N(C)C)[C@H](C(C)C)Oc2ccc(cc2)/C=C\NC1=O [FRANGUFOLINE]

Activity (Serum [1]): Unstable
SMILES: CC(C)C[C@H]1NC(=O)[C@@H](NC(=O)[C@H](Cc2ccccc2)N(C)C)[C@H](C(C)C)Oc2ccc(cc2)/C=C\NC1=O [SANJOININE AH1]

Activity (Serum [1]): Stable
SMILES: CO[C@H]1CNC(=O)[C@H](CC(C)C)NC(=O)[C@@H](NC(=O)[C@H](Cc2ccccc2)N(C)C)[C@H](C(C)C)Oc2ccc1cc2 [SANJOININE D]

Activity (Serum [1]): Stable
SMILES: CC(C)C[C@@H]1NC(=O)[C@@H](NC(=O)[C@H](Cc2ccccc2)N(C)C)[C@H](C(C)C)Oc2ccc(cc2)[C@@H](O)CNC1=O [SANJOININE G1]

Source: ChEMBL document CHEMBL1145723, “Metabolic cleavage of frangufoline in rodents: in vitro and in vivo study” (J Nat Prod, 1997)
